Measured values as given in the supplement of paper PMC10307832.

Columns and labels:
Assay in all cases: relative viability (nuclei count vs DMSO), 5 days (fraction); higher = more cells survive
[1] = compound: CN(c1ncccc1CNc1nc(Nc2ccc3c(c2)CC(=O)N3)ncc1C(F)(F)F)S(C)(=O)=O + NC(=O)Nc1cc(-c2cccc(F)c2)sc1C(=O)N[C@H]1CCCNC1 [AZD7762] (partner 0.2 µM)
Procedure, shortened: (§1)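 One day after seeding in 1536-well plates, lung cancer cell lines were dosed by pin tool. Dosing was either single-drug or a fixed anchor-drug dose plus five library-drug doses (not always all listed) in √10 steps. After 5 days, nuclei were stained in one fix-and-stain step and counted on 4× images, and relative viability is the nuclei count of treated wells over that of vehicle wells, given as the median of duplicate plates.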

[2] = compound: CN(c1ncccc1CNc1nc(Nc2ccc3c(c2)CC(=O)N3)ncc1C(F)(F)F)S(C)(=O)=O + Nc1ncn([C@H]2C[C@H](O)[C@@H](CO)O2)c(=O)n1 [Decitabine] (partner 2 µM)
Procedure, shortened: as §1

[3] = compound: CN(c1ncccc1CNc1nc(Nc2ccc3c(c2)CC(=O)N3)ncc1C(F)(F)F)S(C)(=O)=O + CS(=O)(=O)CCNCc1ccc(-c2ccc3ncnc(Nc4ccc(OCc5cccc(F)c5)c(Cl)c4)c3c2)o1 [Lapatinib] (partner 2 µM)
Procedure, shortened: as §1

[4] = compound: CN(c1ncccc1CNc1nc(Nc2ccc3c(c2)CC(=O)N3)ncc1C(F)(F)F)S(C)(=O)=O + CC(C)C[C@H](NC(=O)[C@H](Cc1ccccc1)NC(=O)c1cnccn1)B(O)O [Bortezomib] (partner 0.002 µM)
Procedure, shortened: as §1

Cell Line	relative viability ([1]; first compound 0.01 µM)	relative viability ([1]; first compound 0.03162 µM)	relative viability ([1]; first compound 0.1 µM)	relative viability ([1]; first compound 0.3162 µM)	relative viability ([1]; first compound 1 µM)	relative viability ([2]; first compound 0.01 µM)	relative viability ([2]; first compound 0.03162 µM)	relative viability ([2]; first compound 0.1 µM)	relative viability ([2]; first compound 0.3162 µM)	relative viability ([2]; first compound 1 µM)	relative viability ([3]; first compound 0.01 µM)	relative viability ([3]; first compound 0.03162 µM)	relative viability ([3]; first compound 0.1 µM)	relative viability ([3]; first compound 0.3162 µM)	relative viability ([3]; first compound 1 µM)	relative viability ([4]; first compound 0.01 µM)	relative viability ([4]; first compound 0.03162 µM)	relative viability ([4]; first compound 0.1 µM)	relative viability ([4]; first compound 0.3162 µM)	relative viability ([4]; first compound 1 µM)
201T	0.617	0.582	0.688	0.654	0.604	0.846	0.856	0.808	0.85	0.771	1.08	1	0.962	0.924	0.988	1.1	1.09	1.04	1.01	1.08
A549	–	–	–	–	–	0.271	0.258	0.285	0.257	0.257	1	1.06	0.971	0.928	0.915	–	–	–	–	–
A-427	0.798	0.81	0.874	1.14	0.907	0.549	0.568	0.588	0.664	0.61	1.05	1.05	1	1.04	1.02	1.09	1.01	0.998	0.942	0.965
ABC-1	0.838	0.86	0.825	0.803	1.08	1.01	1.17	0.949	0.944	1.09	1.29	1.15	1.36	1.13	1.21	0.308	0.273	0.396	0.376	0.329
BEN	0.721	0.709	0.73	0.774	0.563	0.739	0.739	0.715	0.763	0.671	0.699	0.689	0.654	0.715	0.686	0.821	0.772	0.993	0.865	0.856
CAL-12T	0.677	0.603	0.559	0.647	0.633	–	–	–	–	–	0.65	0.663	0.43	0.591	0.627	1.07	0.886	0.856	0.919	0.878
COR-L23	–	–	–	–	–	0.417	0.493	0.44	0.503	0.399	0.924	1.16	0.92	0.883	0.628	0.967	1.01	1.05	0.951	0.894
COR-L 105	–	–	–	–	–	0.762	0.68	0.728	0.733	0.697	0.335	0.387	0.355	0.355	0.341	0.889	0.733	0.835	0.814	0.595
Calu-6	–	–	–	–	–	–	–	–	–	–	1.05	1.12	1	1	0.912	1.04	1.01	1.02	0.958	0.874
ChaGo-K-1	0.932	0.856	0.873	0.917	0.853	0.565	0.549	0.438	0.527	0.492	–	–	–	–	–	1.01	0.803	1.11	–	1.09
EKVX	0.723	0.676	0.747	0.838	0.748	0.372	0.327	0.301	0.342	0.335	0.182	0.188	0.218	0.119	0.514	1.02	1.19	1.11	0.923	0.83
EMC-BAC-2	1.17	1.08	1.1	1.11	1.14	0.994	1.02	0.915	0.963	0.982	0.956	0.902	0.876	0.899	0.838	1.08	1.1	1	1.06	1.08
EPLC-272H	0.273	0.174	0.211	0.331	0.291	0.367	0.339	0.357	0.397	0.336	0.921	0.914	0.884	0.965	1.09	0.972	0.774	0.854	0.944	0.758
H3255	0.938	0.871	0.935	0.934	0.81	0.633	0.587	0.572	0.552	0.615	0.24	0.221	0.237	0.192	0.252	0.758	0.783	0.819	0.505	0.784
HARA	0.49	0.351	0.368	0.355	0.455	0.66	0.599	0.492	0.597	0.573	0.763	0.692	0.616	0.678	0.665	1.12	1.07	1.13	1.2	1.09
HCC-15	1.31	1.39	1.04	1.23	1.21	0.639	0.629	0.548	0.496	0.523	0.876	0.905	0.72	0.775	0.723	1.04	1	0.898	0.88	0.829
HCC-44	0.948	1.02	0.969	0.967	0.964	0.871	0.956	0.898	0.977	0.996	1.09	0.986	0.987	0.993	0.972	0.963	0.931	0.913	0.829	0.824
IA-LM	–	–	–	–	–	–	–	–	–	–	0.884	0.82	0.887	0.608	0.56	0.807	0.886	0.727	0.877	0.666
